Assays:
solubility in water = type: physicochemical
[1] = system: CD133, Nanog, Oct4, Sox2 expression in human parental cancer cells; experiment: qRT-PCR of self-renewal marker genes in parental cancer cells; type: cell-based; conditions: 1.25 μM NSC-30049 + 1.25 μM OPT, 72 h, compared to either alone
Protocol: Cells were treated with 1.25 μM of NSC-30049 and 1.25 μM of OPT either alone or in combination for 72 h. Data are mean±SD of triplicate experiments. FIG. 9B depicts the inhibition in expression of self-renewal marker genes of colon cancer stem cells, qRT-PCR data of CD133+, Oct4, Sox2 and Nanog gene expression levels of parental cancer cells and colon cancer stem cells was obtained. Cells were treated with 1.25 μM of NSC-30049 and 1.25 μM of OPT either alone or in combination for 72 h. Fold change in gene expression values is shown as mean±SD of three experiments and are normalized to GAPDH gene expression.
Without being bound to a particular theory, the effect of administration of NSC-30049 in combination with oxaliplatin (OPT) on the expression of self-renewal marker genes of colon cancer stem cells was analyzed. Self-renewal marker genes are highly expressed in colon cancer stem cells compared to human parental cancer cells. qRT-PCR data of CD133+, Oct4, Sox2 and Nanog gene expression levels of parental cancer cells and colon cancer stem cells was obtained (FIG. 9B). Cells were treated with 1.25 μM of NSC-30049 and 1.25 μM of OPT either alone or in combination for 72 h. The fold change in gene expression values is shown as mean±SD of three experiments and were normalized to GAPDH gene expression. […]

[2] = system: HCT-116 (MMR deficient) xenograft; experiment: xenograft model of colon cancer, tumor volume; type: in vivo; conditions: NSC-30049 2.5 mg/kg i.p. + temozolomide 20 mg/kg i.p., day 38
Protocol: (§1) FIG. 10A is a schematic representation of the experimental protocol. […] Data are the mean±SD of four to six animals in each group.
(§2) Xenograft models of colon cancer were used to test the effect of NSC-30049 as a chemopreventive agent when administered in combination with temozolomide. At day 0, the xenograft host was administered with cells from a colon cancer cell line (HCT-116, MMR deficient; HCT-116+ch3, MMR proficient). Thereafter, temozolomide (20 mg/kg body weight; intraperitoneal) and/or NSC-30049 (2.5 mg/kg body weight; intraperitoneal) were administered to the animals. Tumor growth was evaluated at day 38.

[3] = system: HCT-116+ch3 (MMR proficient) xenograft; experiment: xenograft model of colon cancer, tumor volume; type: in vivo; conditions: NSC-30049 2.5 mg/kg i.p. + temozolomide 20 mg/kg i.p., day 38
Protocol: as §1, §2

Structure (SMILES): ClCC=CC[N+]12CN3CN(CN(C3)C1)C2 [NSC-30049, 1-(4-Chloro-2-butenyl)-1λ˜5˜,3,5,7-tetraazatricyclo[3.3.1.1˜3,7˜]decane]
- solubility in water (solubility in water): readily soluble in water
- expression of CD133, Nanog, Oct4, and Sox2 [1]: inhibited the expression of CD133, Nanog, Oct4, and Sox2 in human parental cancer cells
- inhibition of tumor growth (tumor volume) [2]: synergistic effect on the inhibition of tumor growth
- inhibition of tumor growth (tumor volume) [3]: synergistic effect on the inhibition of tumor growth

Reference: US9517244B2, “Therapeutic combinations for use in neoplasia” (University of Florida Research Foundation, Inc., priority 2011, dated 2016)
